Measured values from patent publication US20250145631A1, “HETEROCYCLIC COMPOUND ACTING ON G12D MUTANT KRAS PROTEIN” (Astellas Pharma Inc., priority 2022, published 2025).
Where a name gives a salt, the structure may show the parent alone.

Columns and labels:
Assay type in all cases: cell-based
[1] = molecular target: T1, KRAS G12D (Homo sapiens, UniProt P01116, G12D); test: KRAS degradation activity by Cell ELISA in AsPC-1 cells (Test Example 1); conditions: Cell ELISA; for Dmax: ASPC1, overnight treatment, read-out: Dmax (degradation rate at the concentration showing highest degradation); for DC50: overnight treatment, read-out: DC50 (50% degradation concentration of KRAS)
T1 construct: host or cells: AsPC-1 (human pancreatic cancer line)
T1 sequence (P01116 1-188 isoform P01116-2 G12D): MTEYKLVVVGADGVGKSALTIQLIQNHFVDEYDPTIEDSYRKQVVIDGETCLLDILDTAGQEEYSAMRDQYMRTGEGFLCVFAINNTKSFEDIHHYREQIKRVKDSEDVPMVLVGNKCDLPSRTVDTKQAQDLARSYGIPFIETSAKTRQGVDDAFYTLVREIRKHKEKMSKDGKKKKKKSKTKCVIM
Experimental: The KRAS degradation activity of test compounds was evaluated by measuring the expression levels of KRAS G12D by Cell ELISA.
AsPC-1 cells were seeded at 20 μL per well on 384-well plates (from Greiner bio-one) to give 2.0×10^4 cells per well. As for the cell culture conditions, RPMI 1640 (from Sigma-Aldrich) medium containing 10% fetal bovine serum (from Cytiva) was used in the presence of 5% CO2 at 37° C.
The next day, the test compounds (10 points having final concentrations in the range of 10 μM to 0.3 nM) and DMSO (from FUJIFILM Wako Pure Chemical Corporation), which was the solvent for the test compounds, as a negative control were diluted 500-fold with a fresh medium and were added at 20 μL per well. The cells were cultured overnight. The next day, the culture supernatant was removed, and 4% paraformaldehyde phosphate buffer (from FUJIFILM Wako Pure Chemical Corporation) was added at 20 μL per well. The plates were allowed to stand for 30 minutes at room temperature to thus immobilize the cells. Then, the supernatant was removed, and 0.1% Triton X-100 (from Amersham Biosciences)-containing Phosphate buffered saline (PBS; from FUJIFILM Wako Pure Chemical Corporation) was added at 20 μL per well. After allowing to stand for 10 minutes at room temperature, the supernatant was removed. PBS was added at 25 μL per well, and the supernatant was removed to thus wash each well. The washing was performed twice in total. Next, the supernatant was removed, and 0.5% sodium dodecyl sulfate (SDS; from Invitrogen)-containing PBS was added at 20 μL per well. After allowing to stand at room temperature for 10 minutes, the supernatant was removed by a centrifugal operation (using a centrifugal dehydrator machine, the supernatant was removed by the same method hereinafter). PBS was added at 25 μL per well, and the supernatant was removed to thus wash each well. The washing was performed twice in total. The supernatant was removed, and blocking solution (Intercept Blocking Buffer; from Li—COR Biosciences) was added at 20 μL per well. After allowing to stand for 30 minutes at room temperature, the supernatant was removed, and a solution obtained by diluting anti-β-actin antibody (Anti-beta Actin antibody [mAbcam 8226]-Loading Control; from abcam) 1,000-fold with blocking solution and a solution obtained by diluting anti-Ras (G12D Mutant Specific) antibody (Ras (G12D Mutant Specific) (D8H7) Rabbit mAb #14429; from Cell Signaling Technology) and anti-β-actin antibody (from abcam) 1,000-fold with blocking solution were respectively added to positive control wells and the other wells at 15 μL per well as a primary antibody. The plates were allowed to stand overnight at 4° C.
The next day, the supernatant was removed. PBS was added at 25 μL per well, and the supernatant was removed to thus wash each well. The washing was performed twice in total. The supernatant was removed, and a solution obtained by diluting Donkey anti-Mouse IgG H&L (IRDye 680RD) (from Li—COR Biosciences) and Goat anti-Rabbit IgG H&L (IRDye 800CW) (from Li—COR Biosciences) 1,000-fold with blocking solution was added at 15 μL per well as a secondary antibody. A solution obtained by diluting Donkey anti-Mouse IgG H&L (IRDye 680RD) (from Li—COR Biosciences) 1,000-fold with blocking solution was added to a positive control well as a secondary antibody. After allowing to stand for 1 hour at room temperature, the supernatant was removed. PBS was added at […], and the supernatant was removed to thus wash each well. The washing was performed twice in total. After removing the supernatant, the plates were dried with air at room temperature for 2 hours or more, and the 700 nm and 800 nm fluorescent signals were measured with Aerius (from Li—COR Biosciences). […]

[2] = tested on: phosphorylation of ERK (Thr202/Tyr204); test: ERK phosphorylation inhibitory effect by Cell ELISA in AsPC-1 cells (Test Example 2); conditions: Homo sapiens, ASPC1, overnight treatment, Cell ELISA, read-out: IC50 (ERK phosphorylation inhibition)
Experimental: The ERK phosphorylation inhibitory effect of test compounds was evaluated by measuring phosphorylation of threonine 202 (Thr202) and tyrosine 204 (Tyr204) of ERK located downstream of the KRAS signal by Cell ELISA.
AsPC-1 cells were seeded on 384-well plates at 20 µL/well to give 2.0×10^4 cells per well. As for the cell culture conditions, RPMI 1640 medium containing 10% fetal bovine serum was used in the presence of 5% CO2 at 37° C.
The next day, the test compounds (10 points having final concentrations in the range of 10 μM to 0.3 nM), trametinib (MEK inhibitor) of a final concentration of […] as positive control and DMSO, which was the solvent for the test compounds, as negative control were diluted 500-fold with a fresh medium and were added at 20 μL per well. The cells were cultured overnight. After culturing, 30% glyoxal solution (40% glyoxal [from Nacalai Tesque]was diluted with PBS) was quickly added at 30 μL per well, and the plates were allowed to stand for 120 minutes at room temperature to thus immobilize the cells. Then, the plates were centrifuged to remove the supernatant (using a centrifugal dehydrator machine, the supernatant was removed by the same method hereinafter), and 0.10% Triton X-100-containing PBS was added at 20 μL per well. After allowing to stand for 10 minutes at room temperature, the supernatant was removed, and the same operation was further repeated. Next, 0.5% SDS-containing PBS was added at 20 μL per well, and after allowing to stand at room temperature for 30 minutes, the supernatant was removed. Subsequently, blocking solution (Intercept Blocking Buffer) was added at 20 μL per well, and the plates were allowed to stand for 1 hour at room temperature. The supernatant was removed, and an ERK (Thr202/Tyr204) phosphorylation antibody (Phospho-p44/42 MAPK (Erk 1/2) (Thr202/Tyr204) (D13.14.4E) XP Rabbit mAb; from Cell Signaling Technology) diluted 2,500-fold with blocking solution was added at 15 μL per well as a primary antibody. The plates were allowed to stand at 4° C. overnight.
The next day, the supernatant was removed. 0.05% Tween-20 (from Thermo Fisher Scientific)-containing PBS was added at 50 μL per well, and the supernatant was removed to thus wash each well. The washing was performed three times in total. After washing, Goat anti-Rabbit IgG H&L (IRDye 800CW) diluted 1,000-fold with blocking solution was added at 15 μL per well as a secondary antibody, and the plates were allowed to stand for 1 hour at room temperature. The supernatant was removed, and each well was washed three times with 0.05% Tween-20-containing PBS in the same manner as after the primary antibody reaction. After removing the supernatant, the plates were dried with air at room temperature for 3 hours or more, and the 800-nm fluorescent signals were measured with Aerius.
With the signaling value at the time of addition of DMSO taken as 100% and with the signaling value at the time of addition of […] trametinib taken as 0%, the 50% inhibitory concentration values (IC50) were calculated by Sigmoid-Emax nonlinear regression analysis. The calculated 50% inhibition represents the inhibition at the highest concentration evaluated (10 μM) for a compound that exceeds the concentration in the evaluation range.
(§1) In the tables presented below, Ex represents Example No. The IC50 of Ex. 13, Ex. 15, and Ex. 16 were calculated using the molecular weights as tetrahydrochloride, and the IC50 of Ex. 14 was calculated using the molecular weight as trihydrochloride.

[3] = tested on: human G12D mutant KRAS-positive pancreatic cancer line AsPC-1; test: Non-anchorage-dependent cell growth inhibitory effect, spheroid 3D culture (Test Example 3); conditions: ASPC1, 144 h, AsPC-1 spheroid 3D culture, 6 days; for IC50: CellTiter Glo 2.0, read-out: IC50 (non-anchorage-dependent cell growth inhibition); for inhibition at 10 µM: read-out: cell growth inhibition at the highest concentration evaluated
Experimental: The non-anchorage-dependent cell growth inhibitory effect of test compounds was evaluated by spheroid 3D cell culture.
AsPC-1 cells were seeded on low-cell-adhesive round bottom 384-well plates (PrimeSurface: from Sumitomo Bakelite) at 20 μL (or […])/well to give 5×10^2 cells per well. As for the cell culture conditions, RPMI 1640 medium containing 10% fetal bovine serum was used in the presence of 5% CO2 at 37° C.
The next day, the test compounds (10 points or 6 points having final concentrations in the range of 10 μM to 0.3 nM) and DMSO, which was the solvent for the test compounds, as a negative control were diluted 500-fold (or 100-fold) with a fresh medium and were added at 20 μL (or […]) per well. After culturing in the presence of 5% C02 at 37° C. for 6 days, CellTiter Glo 2.0 (from Promega) was added at 20 μL per well. After stirring with a plate mixer (from FINEPCR) at normal temperature for 1 hour, the luminescent signals were measured with ARVO X3 (from PerkinElmer).
With the signaling value in treatment with DMSO taken as 100% and with the signaling value in the medium alone without cells taken as 0%, the 50% inhibitory concentration values (IC50) were calculated by Sigmoid-Emax nonlinear regression analysis. The calculated 50% inhibition represents the inhibition at the highest concentration evaluated (10 μM) for a compound that exceeds the concentration in the evaluation range.
as §1

Compound	Dmax [1] [%]	DC50 [1] [µM]	IC50 [2] [µM]	IC50 [3] [µM]	inhibition at 10 µM [3] [%]
Cc1c(F)cc2[nH]ncc2c1-c1c(C2CC2)cc2c(N3C[C@@H]4C[C@H]3CN4)nc(OC3CCOCC3)nc2c1OCc1ccc(C(=O)N2CCN(Cc3ccc4c(N5CCC(=O)NC5=O)nn(C)c4c3)C[C@@H]2C)cc1 (atropisomer, axis not shown; (M)) [Example 16, 1-(6-{[(3S)-4-{4-[({(7M)-6-cyclopropyl-4-[(1S,4S)-2,5-diazabicyclo[2.2.1]heptan-2-yl]-7-(6-fluoro-5-methyl-1H-indazol-4-yl)-2-[(oxan-4-yl)oxy]quinazolin-8-yl}oxy)methyl]benzoyl}-3-methylpiperazin-1-yl]methyl}-1-methyl-1H-indazol-3-yl)-1,3-diazinane-2,4-dione n hydrochloride]	86	0.071	0.158	0.073	–
Cc1c(F)cc2[nH]ncc2c1-c1c(C2CC2)cc2c(N3C[C@@H]4C[C@H]3CN4)nc(OC3CCOCC3)nc2c1OCc1ccc(C(=O)N2CCN(Cc3cccc4c3oc(=O)n4C3CCC(=O)NC3=O)CC2)cc1 (stereo partly shown) [Example 6]	49	2.73	3.94	–	50
CO[C@H](C)COc1nc(N2C[C@@H]3C[C@H]2CN3)c2cc(C3CC3)c(-c3c(C)c(F)cc4[nH]ncc34)c(OCc3ccc(C(=O)N4CCN(Cc5ccc6c(c5)n(C)c(=O)n6C5CCC(=O)NC5=O)C[C@@H]4C)cc3)c2n1 (stereo partly shown) [Example 38]	86	0.022	0.031	0.051	–
Cc1c(F)cc2[nH]ncc2c1-c1c(C2CC2)cc2c(N3C[C@@H]4C[C@H]3CN4)nc(O[C@@H]3CCOC3)nc2c1OCc1ccc(C(=O)N2CCN(Cc3ccc4c(c3)n(C)c(=O)n4C3CCC(=O)NC3=O)C[C@@H]2C)cc1 (stereo partly shown) [Example 36]	80	0.079	0.078	0.159	–
Cc1c(F)cc2[nH]ncc2c1-c1c(C2CC2)cc2c(N3C[C@@H]4C[C@H]3CN4)nc(OC3CCOCC3)nc2c1OCc1ccc(C(=O)N2CCN(Cc3ccc(CN4CCC(=O)NC4=O)cc3F)C[C@@H]2C)cc1 (atropisomer, axis not shown) [Example 26]	67	5.22	2.02	1.35	–
Cc1c(F)cc2[nH]ncc2c1-c1c(C2CC2)cc2c(N3C[C@@H]4C[C@H]3CN4)nc(OC3CCOCC3)nc2c1OCc1ccc(C(=O)N2CCN(Cc3ccc4c(c3)n(C)c(=O)n4C3CCC(=O)NC3=O)CC2)cc1 (stereo partly shown) [Example 7]	80	0.035	0.06	0.073	–
Cc1c(F)cc2[nH]ncc2c1-c1c(C2CC2)cc2c(N3C[C@@H]4C[C@H]3CN4)nc(OC3CCOCC3)nc2c1OCc1ccc(C(=O)N2CCC(CNc3cccc4c3C(=O)N(C3CCC(=O)NC3=O)C4=O)CC2)cc1 (stereo partly shown) [Example 30]	71	1.48	1.28	1.44	–
Cc1c(F)cc2[nH]ncc2c1-c1c(C2CC2)cc2c(N3C[C@@H]4C[C@H]3CN4)nc(OC3CCOCC3)nc2c1OCc1ccc(C(=O)N2CCN(Cc3cccc4c(N5CCC(=O)NC5=O)nn(C)c34)CC2)cc1 (atropisomer, axis not shown) [Example 23]	61	2.81	1.56	1.09	–
Cc1c(F)cc2[nH]ncc2c1-c1c(C2CC2)cc2c(N3C[C@@H]4C[C@H]3CN4)nc(OC3CCOCC3)nc2c1OCc1ccc(C(=O)N2CCC3(CN(Cc4ccc5c(N6CCC(=O)NC6=O)nn(C)c5c4)C3)C2)cc1 (atropisomer, axis not shown) [Example 19]	93	0.278	0.555	0.242	–
Cc1c(F)cc2[nH]ncc2c1-c1c(C2CC2)cc2c(N3C[C@@H]4C[C@H]3CN4)nc(OC3CCOCC3)nc2c1OCc1ccc(C(=O)N2CCN(Cc3ccc4c(c3)C(=O)N(C3CCC(=O)NC3=O)C4=O)CC2)cc1 (stereo partly shown) [Example 1]	59	1.95	3.36	–	37
